The text below walks through data of publication PMC10421868, “The acquisition order of leukemic drug resistance mutations is directed by the selective fitness associated with each resistance mechanism” (Scientific Reports, 2023).

Series [1] concerns the target BCR::ABL1 kinase activity (Homo sapiens, UniProt P00519+P11274). Here is the method:
Western blotting for phosphorylated CT10 regulator of kinase-like (p-CrkL) was performed as previously described.

Series [2] relates to Chronic Myeloid Leukemia patients. The settings on record: CML patients; cited from earlier work.
Another series deals with K562 and K562 DasR cells. Briefly: Intracellular uptake and retention (IUR) assay. The settings on record: 2 μM C14-dasatinib, 2 h, 37 °C. Format: in vitro ADME. On the procedure:
To determine the quantity of intracellular dasatinib in leukemic cells, and the dasatinib transport functionality of ABCG2, the intracellular uptake and retention (IUR) assay was performed as previously described. K562 and K562 DasR cells were washed and incubated with 0 or 2 μM C^14-dasatinib kindly provided by Bristol Myers Squibb (New York, NY), in the presence or absence of 0.5 μM Ko143. This was performed using 2 × 10^5 cells in 2 mL of RPMI-1640 + 10% FCS, for 2 h at 37 °C. Following incubation, cells were pelleted by centrifugation for 5 min at 6800 rpm then 30 s at 13,000 rpm. Radioactivity of C^14-dasatinib was determined independently in the supernatant and cell pellet using a Tri-Carb 2810R Liquid Scintillation Counter (Perkin Elmer, Inc., Waltham, MA). The IUR was reported as ng of dasatinib incorporated per 200,000 cells. Results are expressed as paired –/ + Ko143 samples.

Chain of BCR::ABL1 kinase activity (P11274+P00519 fused): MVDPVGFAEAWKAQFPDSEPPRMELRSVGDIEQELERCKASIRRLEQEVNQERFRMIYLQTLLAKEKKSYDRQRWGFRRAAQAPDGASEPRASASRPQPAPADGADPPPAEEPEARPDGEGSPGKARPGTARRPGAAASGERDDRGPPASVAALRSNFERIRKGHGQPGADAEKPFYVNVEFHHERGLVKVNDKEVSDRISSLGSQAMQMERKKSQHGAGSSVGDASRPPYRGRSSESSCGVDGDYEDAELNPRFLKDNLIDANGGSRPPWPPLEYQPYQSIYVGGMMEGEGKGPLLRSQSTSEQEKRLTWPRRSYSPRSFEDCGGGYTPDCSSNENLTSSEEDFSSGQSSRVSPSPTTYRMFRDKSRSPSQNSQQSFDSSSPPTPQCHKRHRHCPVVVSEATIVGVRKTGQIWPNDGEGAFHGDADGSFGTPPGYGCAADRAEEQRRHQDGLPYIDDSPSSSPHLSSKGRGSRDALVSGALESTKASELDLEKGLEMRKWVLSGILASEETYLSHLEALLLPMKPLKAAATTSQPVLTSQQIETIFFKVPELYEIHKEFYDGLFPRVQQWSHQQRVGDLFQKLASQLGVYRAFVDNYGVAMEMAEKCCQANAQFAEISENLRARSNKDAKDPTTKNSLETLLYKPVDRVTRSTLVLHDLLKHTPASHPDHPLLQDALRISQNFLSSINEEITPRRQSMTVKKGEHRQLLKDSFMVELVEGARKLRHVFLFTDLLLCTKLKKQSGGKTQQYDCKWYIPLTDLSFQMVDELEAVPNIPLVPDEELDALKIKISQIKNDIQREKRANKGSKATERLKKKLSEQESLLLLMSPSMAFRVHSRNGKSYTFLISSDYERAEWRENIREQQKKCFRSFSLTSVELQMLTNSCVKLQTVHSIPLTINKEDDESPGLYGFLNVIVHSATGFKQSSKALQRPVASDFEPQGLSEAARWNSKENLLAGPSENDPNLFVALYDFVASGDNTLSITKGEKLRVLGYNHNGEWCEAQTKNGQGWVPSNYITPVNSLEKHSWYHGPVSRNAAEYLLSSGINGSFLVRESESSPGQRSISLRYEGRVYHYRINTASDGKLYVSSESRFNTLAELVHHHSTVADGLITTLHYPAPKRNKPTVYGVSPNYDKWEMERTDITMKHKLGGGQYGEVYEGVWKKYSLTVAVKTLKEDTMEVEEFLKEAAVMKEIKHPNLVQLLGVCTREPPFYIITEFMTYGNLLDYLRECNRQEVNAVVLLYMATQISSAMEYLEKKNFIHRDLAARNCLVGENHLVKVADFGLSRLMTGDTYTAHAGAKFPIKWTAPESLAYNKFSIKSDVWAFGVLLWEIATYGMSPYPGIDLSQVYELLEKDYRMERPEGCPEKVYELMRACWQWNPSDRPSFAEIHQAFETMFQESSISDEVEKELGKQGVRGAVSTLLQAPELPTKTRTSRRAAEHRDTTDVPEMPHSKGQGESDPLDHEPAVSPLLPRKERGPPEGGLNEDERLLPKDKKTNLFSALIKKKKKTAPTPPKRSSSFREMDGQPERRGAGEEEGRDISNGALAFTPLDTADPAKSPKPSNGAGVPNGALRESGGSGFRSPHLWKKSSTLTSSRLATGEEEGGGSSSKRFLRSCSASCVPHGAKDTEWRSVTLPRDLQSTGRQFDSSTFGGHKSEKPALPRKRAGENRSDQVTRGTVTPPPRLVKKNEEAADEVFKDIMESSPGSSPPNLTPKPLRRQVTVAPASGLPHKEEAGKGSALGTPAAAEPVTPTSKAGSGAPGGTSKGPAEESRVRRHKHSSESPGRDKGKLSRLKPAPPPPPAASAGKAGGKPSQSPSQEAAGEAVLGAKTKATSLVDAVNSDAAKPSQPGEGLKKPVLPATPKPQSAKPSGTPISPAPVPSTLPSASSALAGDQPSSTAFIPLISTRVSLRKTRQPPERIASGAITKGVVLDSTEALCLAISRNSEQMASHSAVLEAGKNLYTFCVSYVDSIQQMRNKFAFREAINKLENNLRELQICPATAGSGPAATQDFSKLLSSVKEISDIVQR

`COc1ccc2c3c([nH]c2c1)[C@H](CC(C)C)N1C(=O)[C@H](CCC(=O)OC(C)(C)C)NC(=O)[C@@H]1C3` [Ko143]: the “Effect of addition of Ko143 on dasatinib IC50” value in series [1] (K562 25, 50 and 200 nM DasR lines) is “no effect”. The “Effect of Ko143 on ponatinib IC50” value in series [1] (K562 later stage DasR intermediates with lower ABCG2 expression, and DMSO control line) was “no significant change”.
For `COc1cc(Nc2c(C#N)cnc3cc(OCCCN4CCN(C)CC4)c(OC)cc23)c(Cl)cc1Cl` [bosutinib], in series [2], the “Suboptimal response, share of treated patients” value (“Suboptimal response, share” for short) was < 10%.
As for `Cc1nc(Nc2ncc(C(=O)Nc3c(C)cccc3Cl)s2)cc(N2CCN(CCO)CC2)n1` [dasatinib], in the series with K562 and K562 DasR cells (K562 15 nM DasR cells, with 0.5 μM Ko143), the “Intracellular dasatinib (IUR)” value was 19.39 ng/200,000 cells. Further, the “Dasatinib uptake (IUR)” value in the series with K562 and K562 DasR cells (K562 15 nM DasR cells, without Ko143) was 12.15 ng/200,000 cells; in the series with K562 and K562 DasR cells (K562 control, with 0.5 μM Ko143) it was 22.07 ng/200,000 cells; in the series with K562 and K562 DasR cells (K562 control, without Ko143), 24.56 ng/200,000 cells. The “Suboptimal response, share” value in series [2] is < 10%.
On to `Cc1ccc(NC(=O)c2ccc(CN3CCN(C)CC3)cc2)cc1Nc1nccc(-c2cccnc2)n1` [imatinib], for which, in series [2], the “10 year survival rate” value is “over 83%” and the “Suboptimal response, share” value is recorded as 10–15%.
Consider `Cc1cn(-c2cc(NC(=O)c3ccc(C)c(Nc4nccc(-c5cccnc5)n4)c3)cc(C(F)(F)F)c2)cn1` [nilotinib], for which the “Suboptimal response, share” value in series [2] is < 10%.
